Where “and” joins values, the source holds several entries; their conditions need not be identical. Equal entries are not always repeated.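 The compound was tested at five concentrations on cells cultured in 96-well plates, with a 48-hour exposure period. GI50: concentration for 50% inhibition of growth. TGI is the concentration that stops growth completely.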
How the values were obtained:
Experiment in all cases: NCI tumour cell line growth inhibition, 48 h
K-562 leukemia = tested on: K-562 leukemia
HOP-62 NSCLC = tested on: HOP-62 NSCLC
OVCAR-4 ovarian = tested on: OVCAR-4 ovarian
MDA-MB-435 = tested on: MDA-MB-435
NCI-H460 lung = tested on: NCI-H460 lung
OVCAR-3 ovarian = tested on: OVCAR-3 ovarian
SR leukemia = tested on: SR leukemia
BT-549 breast = tested on: BT-549 breast
MALME-3M melanoma = tested on: MALME-3M melanoma
NCI/ADR-RES ovarian = tested on: NCI/ADR-RES ovarian

SMILES | GI50 (K-562 leukemia) | TGI (K-562 leukemia) | GI50 (HOP-62 NSCLC) [µM] | TGI (HOP-62 NSCLC) | GI50 (OVCAR-4 ovarian) [µM] | TGI (OVCAR-4 ovarian) | GI50 (MDA-MB-435) | TGI (MDA-MB-435) | GI50 (NCI-H460 lung) | TGI (NCI-H460 lung) | GI50 (OVCAR-3 ovarian) | TGI (OVCAR-3 ovarian) | GI50 (SR leukemia) | TGI (SR leukemia) | GI50 (BT-549 breast) [µM] | TGI (BT-549 breast) [µM] | GI50 (MALME-3M melanoma) | TGI (MALME-3M melanoma) | GI50 (NCI/ADR-RES ovarian) | TGI (NCI/ADR-RES ovarian) [µM]
CCCN(CCC)c1ccc(/C=N/NC(=O)c2cccnc2)c(C)c1 | 10.5 µM | 54.6 µM | 18.2 | 43.3 µM | 15.3 | 78.5 µM | 5.67 µM | 20.8 µM | 14.2 µM | 28.3 µM | 13 µM | 27.8 µM | 8.15 µM | 41.7 µM | 15.2 | 29.3 | 13 µM | 28.2 µM | 15.2 µM | 51.5
CCOC(=O)c1ccc(N2NC(=O)/C(=C/c3ccc([N+](=O)[O-])o3)C2=O)cc1 | 9.64 µM | > 73.3 µM | 29.9 | > 55.7 µM | 17 | 30.9 µM | 15.1 µM | 33 µM | > 43.3 µM | > 60.7 µM | 6.82 µM | 17.1 µM | 10.1 µM | 57.8 µM | 20.1 | 39.7 | 15.6 µM | 35.1 µM | 25.9 µM | > 71.8
COc1cc(-n2cc(-c3ccc(Cl)cc3)n(-c3ccccc3)c2=O)cc(OC)c1OC | 13.6 µM | > 100 µM | 44.3 | > 100 µM | 17.9 | > 100 µM | 18.7 µM | > 86.3 µM | 14.9 µM | > 100 µM | 16.3 µM | > 86.2 µM | 4.48 µM | > 38.4 µM | 17.5 | 57.3 | 21.2 µM | 75.2 µM | 21.5 µM | > 100
ClCc1ccccc1Cn1cnc2nc(Cl)nc(Cl)c21 | 0.239 µM | 2.95 µM | 2.35 | 4.4 µM | 1.76 | 4.46 µM | 6.04 µM | 13.2 µM | 2.09 µM | > 24.3 µM | 5.29 µM | 12.3 µM | 0.64 µM | 5.66 µM | 1.34 | 3.08 | 1.68 µM | 7.75 µM | 1.07 µM | 3.96
O=C(COc1ccccc1)NNc1ccccc1 | 3.67 µM and 6.43 µM | > 300 µM | 116 | > 300 µM | > 300 | > 300 µM | 12.2 µM and 16.1 µM | > 300 µM | 17.1 µM and 15.8 µM | > 300 µM | > 95.4 µM and 191 µM | > 300 µM | > 26.3 µM and 6.77 µM | > 300 µM | 90.7 | > 300 | 66.9 µM and 101 µM | > 300 µM | 58.1 µM and 63.3 µM | > 300
CCOc1ccc(-c2nc3ccc(-c4nc5ccc(N6CCN(C)CC6)cc5[nH]4)cc3[nH]2)cc1 | 0.696 µM | – | 0.456 | 1.6 µM | 0.219 | 0.838 µM | 0.69 µM | 2.8 µM | 0.489 µM | 1.67 µM | 0.125 µM | 0.393 µM | 0.311 µM | 2.67 µM | 1.16 | 2.46 | 0.0329 µM | 0.551 µM | 5.4 µM | > 100
CCCCCSc1ccc2nc(NC(=O)OCC)sc2c1 | 0.393 µM | > 100 µM | 0.491 | 31.1 µM | – | – | 0.194 µM | 0.763 µM | 0.523 µM | > 100 µM | 0.346 µM | 2.14 µM | 0.274 µM | > 100 µM | 0.487 | > 100 | 0.514 µM | > 100 µM | 0.357 µM | 3.82
O=C1OC2(c3ccc(O)cc3Oc3cc(O)ccc32)c2cccc3cccc1c23 | 33.2 µM | > 100 µM | 17 | 33.9 µM | 16.1 | 34.4 µM | 19.1 µM | 38 µM | 23.1 µM | 61.4 µM | – | – | 27.5 µM | > 100 µM | 21.6 | 62.7 | 20.5 µM | 54.7 µM | 31.7 µM | > 100
COc1cccc(/C=N\NC(=O)c2ccncc2)c1O | 13.7 µM | > 100 µM | 5.36 | > 100 µM | 2.43 | > 100 µM | 19.2 µM | > 100 µM | 3.63 µM | > 100 µM | 4.61 µM | > 100 µM | 2.98 µM | > 100 µM | 4.48 | 68.3 | 6.62 µM | 88.3 µM | 2.84 µM | > 100
CCCCCCOC(=O)CC1=C(C)/C(=C/c2[nH]c(-c3ccc[nH]3)cc2OC)N=C1C | – | – | 0.0982 | 1.15 µM | 0.0785 | 1.71 µM | 0.0463 µM | 1.12 µM | 0.355 µM | 1.39 µM | 0.168 µM | 1.15 µM | 0.0307 µM | 0.182 µM | 0.0865 | 1.59 | 0.345 µM | 1.44 µM | 0.135 µM | 1.33
Clc1cc(Br)ccc1-c1ccc(CNCC2CCNCC2)o1 | 1.45 µM | 3.46 µM | 1.84 | 3.43 µM | 1.86 | 4.49 µM | 1.84 µM | 3.46 µM | 1.87 µM | 3.72 µM | 1.75 µM | 3.27 µM | 0.444 µM | 2.65 µM | 1.73 | 3.5 | 2.33 µM | 4.11 µM | 3.13 µM | 9.69
Cc1nnn(C)c1-c1cnc2c3ccc(C(C)(C)O)cc3n([C@H](c3ccccc3)C3CCOCC3)c2c1 | < 0.01 µM | > 100 µM | < 0.0227 | > 46.9 µM | 0.033 | > 100 µM | < 0.01 µM | > 100 µM | 0.966 µM | > 65.7 µM | 0.0271 µM | 14.8 µM | < 0.01 µM | > 100 µM | 3.61 | 24 | 0.052 µM | 41.3 µM | 0.26 µM | 37.8
COc1cc2c(cc1OC)[C@@H]1C(=O)c3ccc4c(c3O[C@@H]1CO2)C[C@H](C(C)C)O4 | 0.521 µM | > 41.4 µM | 9.23 | > 60.6 µM | 0.795 | > 100 µM | 4.06 µM | > 36.7 µM | 4.33 µM | 45.8 µM | 7.81 µM | > 41.1 µM | 1.42 µM | > 23.6 µM | 0.279 | 20.8 | 5.56 µM | 53.2 µM | 0.248 µM | > 29.1
CCc1cc2c(c(OCC(F)(F)F)c(C(=O)NC3CCN(C(=O)CO)CC3)n2C)c(=O)n1CC(=O)c1ccccc1 | 34.4 µM | > 100 µM | > 80.9 | > 100 µM | > 72.2 | > 100 µM | > 100 µM | > 100 µM | > 57.8 µM | > 100 µM | > 100 µM | > 100 µM | 50.7 µM | > 100 µM | 51.3 | > 100 | > 100 µM | > 100 µM | > 68.4 µM | > 100
COC(=O)[C@H](Cc1cn(C)cn1)NC(=O)[C@H](CC(C)C)NC(=O)Nc1cc(C(F)(F)F)cc(C(F)(F)F)c1 | 6.41 µM | > 10 µM | > 10 | > 10 µM | > 10 | > 10 µM | > 10 µM | > 10 µM | > 10 µM | > 10 µM | 2.23 µM | 4.82 µM | 2.59 µM | 8.41 µM | > 10 | > 10 | > 10 µM | > 10 µM | > 10 µM | > 10
CC(=O)O[C@@H]1c2c(c3c(=O)c4cccc(O)c4c(=O)c=3c2=[N+]=[N-])[C@H](OC(C)=O)[C@@H](OC(C)=O)[C@]1(C)O | 0.0909 µM | 3.1 µM and 0.444 µM | – | 1.37 µM and 1.98 µM | – | 4.32 µM and 2.16 µM | 0.27 µM | 1.42 µM and 0.88 µM | 0.149 µM | 1.9 µM and 0.352 µM | 0.407 µM | 1.23 µM and 1.4 µM | 0.0582 µM | 0.37 µM and 0.36 µM | – | 1.33 | 0.269 µM | 0.929 µM and 0.972 µM | – | 0.658
CC(=O)OCC1OC(SC2=N/C(=C\c3ccc(Br)s3)C(=O)N2c2ccccc2)C(OC(C)=O)C(OC(C)=O)C1OC(C)=O (centres undefined) | > 100 µM and 18.9 µM | > 100 µM | – | > 100 µM | – | > 100 µM | 86.3 µM and 32.2 µM | > 100 µM | – | > 100 µM | 91.1 µM and 20.7 µM | > 100 µM and 85.2 µM | 35.6 µM and 9.68 µM | > 100 µM | – | > 100 | – | > 100 µM | – | > 100
CCCCN(CCCC)P(=O)(Oc1ccccc1)Oc1ccccc1 | 7.01 µM | > 100 µM | 14 | 27.7 µM | 7.35 | 20.5 µM | 6.2 µM | 19.9 µM | 5.24 µM | 18.9 µM | 6.44 µM | 18.7 µM | 7.34 µM | 68.5 µM | 14.9 | 28.3 | – | – | 5.23 µM | 18.7
Cc1[nH]c2ccccc2c1CO | 18.6 µM | 61.4 µM | 28.1 | > 100 µM | 21.4 | 82.6 µM | 16.8 µM | 36.6 µM | 16.9 µM | 31.6 µM | 5.54 µM | 19.6 µM | 25.1 µM | > 100 µM | 18.4 | 40.3 | – | – | 19.5 µM | 60.3

Source: PubChem BioAssay (NCI)
